Experimental findings from US20260008768A1, “UREA DERIVATIVES FOR INHIBITING NLRP3 AND USES THEREOF” (VENTUS THERAPEUTICS U.S., INC., priority 2023, published 2026) are described below.

Some results are limits rather than exact numbers.

Sequence of human NLRP3 (Q96P20 whole entry): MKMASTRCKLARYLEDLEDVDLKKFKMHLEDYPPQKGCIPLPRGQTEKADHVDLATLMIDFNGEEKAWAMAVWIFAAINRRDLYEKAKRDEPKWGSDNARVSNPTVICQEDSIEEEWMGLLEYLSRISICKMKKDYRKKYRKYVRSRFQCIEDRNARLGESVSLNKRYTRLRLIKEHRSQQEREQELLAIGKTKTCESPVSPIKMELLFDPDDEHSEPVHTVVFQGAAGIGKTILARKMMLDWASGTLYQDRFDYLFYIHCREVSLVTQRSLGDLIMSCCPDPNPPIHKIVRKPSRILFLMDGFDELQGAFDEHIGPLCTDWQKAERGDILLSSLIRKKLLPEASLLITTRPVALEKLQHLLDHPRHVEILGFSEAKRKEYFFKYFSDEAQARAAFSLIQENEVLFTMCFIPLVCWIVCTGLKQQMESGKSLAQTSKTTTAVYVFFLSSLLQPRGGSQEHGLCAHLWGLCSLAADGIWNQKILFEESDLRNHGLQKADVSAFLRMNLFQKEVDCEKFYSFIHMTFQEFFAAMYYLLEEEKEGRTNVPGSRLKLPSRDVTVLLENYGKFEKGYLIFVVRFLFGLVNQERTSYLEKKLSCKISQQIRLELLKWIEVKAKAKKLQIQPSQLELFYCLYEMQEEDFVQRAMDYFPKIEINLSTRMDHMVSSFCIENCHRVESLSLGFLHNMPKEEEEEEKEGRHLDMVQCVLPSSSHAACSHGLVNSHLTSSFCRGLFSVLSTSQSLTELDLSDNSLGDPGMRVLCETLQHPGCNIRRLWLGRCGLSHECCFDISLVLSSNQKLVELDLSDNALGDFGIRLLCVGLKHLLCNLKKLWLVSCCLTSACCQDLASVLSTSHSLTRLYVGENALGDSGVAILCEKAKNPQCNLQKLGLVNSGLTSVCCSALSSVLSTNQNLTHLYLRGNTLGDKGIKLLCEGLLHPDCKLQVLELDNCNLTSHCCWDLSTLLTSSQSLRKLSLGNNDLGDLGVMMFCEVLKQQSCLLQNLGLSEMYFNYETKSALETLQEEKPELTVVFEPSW

One test concerns the target human NLRP3 (Homo sapiens, UniProt Q96P20). Nature of the test: Scintillation Proximity (SPA) NLRP3 Assay, displacement of 3H-MCC950. The test is classed as binding. Conditions: Table B, activity class; displacement of 3H-MCC950 from human NLRP3. The essentials: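 Human NLRP3 (350 nM) preincubated 15 min at RT with compound (5% DMSO final) in HEPES pH 7.5 buffer with 100 μM ADP, then 125 nM 3H-MCC950 added for 60 min. Copper PVT SPA beads added; counts read 6 h later. Specific binding = signal minus no-protein wells, duplicates averaged; IC50 reported.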
For orientation: Scintillation proximity formats need no separation of bound from free tracer.
Regarding `C[C@H]1CCN(c2nnn[nH]2)C[C@@H](NC(=O)N(C)c2ccc(C(F)(F)F)c(F)c2)C1` [Compound 9D, 1-(3-fluoro-4-(trifluoromethyl)phenyl)-1-methyl-3-((3S,5S)-5-methyl-1-(1H-tetrazol-5-yl)azepan-3-yl)urea], the IC50 (commonly the concentration at which inhibition is half-maximal) is 1 to 10 µM.
With `C[C@H]1CCN(c2nnn[nH]2)C[C@@H](NC(=O)N(C)c2c(F)cc(C3CC3)cc2F)C1` (single isomer, unassigned) [20D*], the IC50 lay in the range of 1 to 10 µM.
On the same count and under the same terms, for `C[C@@H]1C[C@H](NC(=O)N(C)c2ccc(OC(F)F)c(F)c2)[C@H]2CC[C@@H]1N2c1nnn[nH]1` (single isomer, unassigned) [52B*] the value was above 100 µM.
On the same count and under the same terms, the same measure for `C[C@@H]1CCN(c2nnn[nH]2)C[C@H](NC(=O)N(C)c2ccc(Cl)cn2)C1` (single isomer, unassigned) [28A*]: 1 to 10 µM.
For the compound `C[C@@H]1CCN(c2nnn[nH]2)C[C@H](NC(=O)N(C)c2ccc(C(F)(F)F)nn2)C1` (single isomer, unassigned) [33A*], the half-maximal inhibitory concentration (IC50) is 10 to 50 µM.
Same read-out and setting: the same measure for `C[C@H]1C[C@@H](NC(=O)N(C)c2ccc(OC(F)F)cc2F)[C@@H]2CC[C@H]1N2c1nnn[nH]1` (single isomer, unassigned) [57C*]: 50 to 100 µM.
Still for that read-out and setting: for `C[C@@H]1C[C@@H](NC(=O)N(C)c2ccc(C(F)F)c(F)c2)[C@H]2CC[C@@H]1N2c1nnn[nH]1` (single isomer, unassigned) [53A*] the value was 1 to 10 µM.
Same read-out and setting: for `C[C@@H]1C[C@H](NC(=O)N(C)c2ccc(C(F)(F)F)c(F)c2)[C@H]2CC[C@@H]1N2c1nnn[nH]1` (single isomer, unassigned) [49B*] the value was above 100 µM.
As for `C[C@@H]1C[C@H](NC(=O)N(C)c2ccc(Cl)c(F)c2)[C@H]2CC[C@@H]1N2c1nnn[nH]1` (single isomer, unassigned) [50B*], the IC50 was above 100 µM.
The compound `C[C@H]1C[C@@H](NC(=O)N(C)c2ccc3ccnn3c2)CN(c2nnn[nH]2)C1` [Compound 36A, 1-methyl-3-((3R,5S)-5-methyl-1-(1H-tetrazol-5-yl)piperidin-3-yl)-1-(pyrazolo[1,5-a]pyridin-6-yl)urea] came in with an IC50 above 100 µM.
Same read-out and setting: for `C[C@H]1CCN(c2nnn[nH]2)C[C@@H](NC(=O)N(C)c2ccc(C(F)(F)F)nn2)C1` (single isomer, unassigned) [33D*] the value was 50 to 100 µM; for `C[C@@H]1CCN(c2nnn[nH]2)C[C@@H](NC(=O)N(C)c2ccc(OC(F)F)c(F)c2)C1` (single isomer, unassigned) [15B*], 1 to 10 µM; for `C[C@@H]1CCN(c2nnn[nH]2)C[C@@H](NC(=O)N(C)c2ccc(Cl)cc2F)C1` (single isomer, unassigned) [5B*], 1 to 10 µM.
On the same count and under the same terms, the same measure for `C[C@@H]1CCN(c2nnn[nH]2)C[C@@H](NC(=O)N(C)c2ccc(OC(F)(F)F)c(OC(F)F)c2)C1` (single isomer, unassigned) [25B*]: 1 to 10 µM; for `C[C@@H]1CCN(c2nnn[nH]2)C[C@@H](NC(=O)N(C)c2ccc(Cl)cn2)C1` (single isomer, unassigned) [28B*]: 50 to 100 µM.
On the same count and under the same terms, the same measure for `C[C@H]1C[C@H](NC(=O)N(C)c2ccc(Cl)c(F)c2)[C@@H]2CC[C@H]1N2c1nnn[nH]1` (single isomer, unassigned) [50D*]: 10 to 50 µM; for `C[C@H]1CCN(c2nnn[nH]2)C[C@H](NC(=O)N(C)c2ccc(C(F)(F)F)c(F)c2F)C1` (single isomer, unassigned) [21C*]: above 100 µM; for `C[C@H]1C[C@H](NC(=O)N(C)c2ccc(C(F)(F)F)cc2F)[C@@H]2CC[C@H]1N2c1nnn[nH]1` (single isomer, unassigned) [48D*]: 10 to 50 µM.
`C[C@@H]1CCN(c2nnn[nH]2)C[C@@H](NC(=O)N(C)c2ccc(OC(F)(F)F)c(F)c2)C1` (single isomer, unassigned) [14B*] came in with an IC50 of 1 to 10 µM.
For the compound `C[C@H]1C[C@@H](NC(=O)N(C)c2ccc(OC(F)F)c(OC(F)F)c2)[C@@H]2CC[C@H]1N2c1nnn[nH]1` (single isomer, unassigned) [64C*], the half-maximal inhibitory concentration (IC50) is above 100 µM.
Same read-out and setting: the same measure for `C[C@@H]1CCN(c2nnn[nH]2)C[C@@H](NC(=O)N(C)c2cnc(C(F)(F)F)nc2)C1` (single isomer, unassigned) [31B*]: 10 to 50 µM; for `C[C@H]1C[C@H](NC(=O)N(C)c2ccc(C(F)F)c(F)c2)[C@@H]2CC[C@H]1N2c1nnn[nH]1` (single isomer, unassigned) [53D*]: above 100 µM.
The compound `C[C@H]1C[C@@H](NC(=O)N(C)c2ccc3ncoc3c2)CN(c2nnn[nH]2)C1` [Compound 35A, 1-(benzo[d]oxazol-6-yl)-1-methyl-3-((3R,5S)-5-methyl-1-(1H-tetrazol-5-yl)piperidin-3-yl)urea] yielded an IC50 of 10 to 50 µM.
The compound `C[C@H]1CCN(c2nnn[nH]2)C[C@H](NC(=O)N(C)c2ccc(Cl)cc2)C1` (single isomer, unassigned) [4C*] came in with an IC50 of 50 to 100 µM.
Still for that read-out and setting: for `C[C@H]1CCN(c2nnn[nH]2)C[C@@H](NC(=O)N(C)c2c(F)cc(OC(F)(F)F)cc2F)C1` (single isomer, unassigned) [41D*] the value was 1 to 10 µM; for `C[C@@H]1CCN(c2nnn[nH]2)C[C@@H](NC(=O)N(C)c2ccc(C(F)(F)F)c(F)c2)C1` (single isomer, unassigned) [9B*], 1 to 10 µM; for `C[C@H]1CCN(c2nnn[nH]2)C[C@@H](NC(=O)N(CC2CC2)c2ccc(OC(F)(F)F)cc2)C1` (single isomer, unassigned) [44D*], 1 to 10 µM.
Still for that read-out and setting: the same measure for `C[C@H]1C[C@@H](NC(=O)N(C)c2ccc(C(F)(F)F)c(F)c2)[C@@H]2CC[C@H]1N2c1nnn[nH]1` (single isomer, unassigned) [49C*]: 50 to 100 µM; for `C[C@H]1CCN(c2nnn[nH]2)C[C@@H](NC(=O)N(C)c2ccc(C(F)F)c(F)c2)C1` (single isomer, unassigned) [22D*]: 1 to 10 µM.
`C[C@@H]1CCN(c2nnn[nH]2)C[C@@H](NC(=O)N(CC2CC2)c2ccc(OC(F)(F)F)cc2)C1` (single isomer, unassigned) [44B*] displayed an IC50 of 1 to 10 µM.
The same measure, in the same setting: for `CC1CCN(c2nnn[nH]2)CC(NC(=O)N(C)c2ccc(Cl)cc2)C1` (single isomer, unassigned) [4D*] the value was 1 to 10 µM; for `C[C@@H]1C[C@H](NC(=O)N(C)c2ccc(OC(F)F)cc2)[C@H]2CC[C@@H]1N2c1nnn[nH]1` (single isomer, unassigned) [42B*], 10 to 50 µM.
Regarding `C[C@H]1C[C@@H](NC(=O)N(C)c2ccc(OC(F)F)cc2)CN(c2nnn[nH]2)C1` [Compound 39A, 1-(4-(difluoromethoxy)phenyl)-1-methyl-3-((3R,5S)-5-methyl-1-(1H-tetrazol-5-yl)piperidin-3-yl)urea], the IC50 was below 1 µM.
The compound `C[C@H]1CCN(c2nnn[nH]2)C[C@@H](NC(=O)N(C)c2ccc(OC(F)F)c(OC(F)F)c2)C1` (single isomer, unassigned) [16D*] yielded a 50% inhibitory concentration (IC50) of 1 to 10 µM.
In the case of `C[C@H]1C[C@@H](NC(=O)N(C)c2ccc(OC(F)F)c(F)c2)[C@@H]2CC[C@H]1N2c1nnn[nH]1` (single isomer, unassigned) [52C*], the 50% inhibitory concentration (IC50) is above 100 µM.
For `C[C@@H]1C[C@H](NC(=O)N(C)c2ccc(C(F)F)cc2F)[C@H]2CC[C@@H]1N2c1nnn[nH]1` (single isomer, unassigned) [55B*], the IC50 is above 100 µM.
On the same count and under the same terms, for `O=C(N[C@@H]1CCCN(c2nnn[nH]2)C1)N(c1ccc(Cl)cc1)C1CC1` [Compound 3A, (R)-3-(1-(1H-tetrazol-5-yl)piperidin-3-yl)-1-(4-chlorophenyl)-1-cyclopropylurea] the value was above 100 µM; for `C[C@@H]1CCN(c2nnn[nH]2)C[C@@H](NC(=O)Nc2ccc(Cl)cc2F)C1` (single isomer, unassigned) [27B*], 1 to 10 µM.
Same read-out and setting: for `C[C@H]1C[C@H](NC(=O)N(C)c2ccc(C(F)F)cc2F)[C@@H]2CC[C@H]1N2c1nnn[nH]1` (single isomer, unassigned) [55D*] the value was 10 to 50 µM; for `C[C@H]1CCN(c2nnn[nH]2)C[C@@H](NC(=O)N(C)c2ccc(OC(F)(F)F)cc2)C1` (single isomer, unassigned) [10D*], 1 to 10 µM.
Take `C[C@H]1C[C@@H](NC(=O)N(C)c2ccc(C3CC3)cc2)[C@@H]2CC[C@H]1N2c1nnn[nH]1` (single isomer, unassigned) [46C*]: the IC50 was 10 to 50 µM.
On the same count and under the same terms, for `C[C@H]1C[C@@H](NC(=O)N(C)c2ccc(Cl)c(F)c2)[C@@H]2CC[C@H]1N2c1nnn[nH]1` (single isomer, unassigned) [50C*] the value was above 100 µM.
As for `C[C@H]1CCN(c2nnn[nH]2)C[C@H](NC(=O)N(C)c2ccc(OC(F)(F)F)c(OC(F)F)c2)C1` (single isomer, unassigned) [25C*], the IC50 was 1 to 10 µM.
Still for that read-out and setting: for `C[C@H]1C[C@H](NC(=O)N(C)c2ccc(C3CC3)cc2)[C@@H]2CC[C@H]1N2c1nnn[nH]1` (single isomer, unassigned) [46D*] the value was 10 to 50 µM; for `C[C@@H]1CCN(c2nnn[nH]2)C[C@@H](NC(=O)N(C)c2c(F)cc(OC(F)(F)F)cc2F)C1` (single isomer, unassigned) [41B*], 1 to 10 µM.

Still in this test, the particulars now being: Table C; displacement of 3H-MCC950 from human NLRP3.
Turning to `C[C@H]1C[C@@H](NC(=O)N(C)c2ccc(OC(F)F)cc2)CN(c2nnn[nH]2)C1` [Compound 39A, 1-(4-(difluoromethoxy)phenyl)-1-methyl-3-((3R,5S)-5-methyl-1-(1H-tetrazol-5-yl)piperidin-3-yl)urea], the 50% inhibitory concentration (IC50) was found to be 0.82 µM.
